10 molecules from patent US20260374767A1, “FUSED HETEROCYCLIC COMPOUNDS AND USES THEREOF” (Chengdu Zenitar Biomedical Technology Co., Ltd., priority 2022, published 2026) can be followed below.

Data set [1] is described as follows: Body weight in MDA-MB-436 xenograft study. The data set is classed as in vivo, NOD/SCID mice. The settings on record: for Body weight X ± SD, End: 24 days. As to the method: Animal assay: all viable experimental animals scheduled for assay; Assay time: All animals were weighed before the modeling for test grouping. After modeling, the mice were weighed once every 2 days, and the weight change of the mice was recorded in real time. Effective criteria: tumor volume (TV), relative tumor volume (RTV) and relative tumor growth rate of subcutaneously implanted tumor model. The long diameter and short diameter of the tumor was measured with vernier calipers every 2 days, and the anti-tumor effects of the tested drug was dynamically observed. The calculation formula of tumor volume (TV) was: TV (mm^3)=a×b2×0.5, where a and b were the long diameter and short diameter, respectively.
Each group consisted of 6 mice, all of which are administered orally once daily. […] After 24 days of administration, the tumor-bearing mice were anesthetized and euthanized. The tumor tissues were dissected, weighed, and photographed, and the tumor inhibition rate was calculated.

Data set [2] has as its system breast cancer MDA-MB-436. Description: In-vivo pharmacodynamic study on subcutaneous xenograft tumor model of breast cancer MDA-MB-436. Set-up: species or system human tumor cells in NOD/SCID mice. Particulars: for inhibitory effects on tumor growth compared to blank control group: all dose groups. Here is the method: Strain: NOD/SCID; Grade: SPF; Source: Beijing Vitron River Bio-technology Co., Ltd.
The cells were washed 3 times with pre-cooled PBS, centrifuged at 300 g for 10 min, collected, re-suspended in PBS, and counted with a blood cell counting chamber, and the cell concentration was adjusted. After cell collection, the cell suspension was pre-cooled on ice. 100 μL of the cell suspension was administered via subcutaneous injection into the dorsal flank of the mice, and the grouped treatment was started when the tumor volume reached 200-300 mm^3.
Animal assay: all viable experimental animals scheduled for assay; Assay time: All animals were weighed before the modeling for test grouping. After modeling, the mice were weighed once every 2 days, and the weight change of the mice was recorded in real time. Effective criteria: tumor volume (TV), relative tumor volume (RTV) and relative tumor growth rate of subcutaneously implanted tumor model. […] The calculation formula of tumor volume (TV) was: TV (mm^3)=a×b2×0.5, where a and b were the long diameter and short diameter, respectively.
The evaluation index for anti-tumor activity was the relative tumor growth rate T/C (%), and the calculation formula was as follows: […]
Where, TRTV is relative tumor volume of the treatment group; CRTV is relative tumor volume of the negative control group. […] The tumor inhibition rate (%) was calculated by the formula below: […]
All raw data within the facility were collected manually according to the experimental scheme and the relevant guidelines of the research institution, or gathered by using a data acquisition system. Manually collected data can be transcribed into software such as Excel for analysis and reporting. The data from each group were quantitative, and the experimental data for each group of animals in the tables were expressed as mean±standard deviation (Mean±SD). In the figures, the experimental data ware described as mean±standard error of the mean (Mean±SEM). Statistical analysis, including t-tests and survival analysis, was performed by using the software such as EXCEL and GraphPad Prism.
After 24 days of administration, the tumor-bearing mice were anesthetized and euthanized. The tumor tissues were dissected, weighed, and photographed, and the tumor inhibition rate was calculated.

In the next data set the test system is MDA-MB-436 cells. Put plainly: Anti-proliferative activity assay, BRCA-mutated MDA-MB-436 cells (CCK8). The settings on record: Homo sapiens, MDA-MB-436, BRCA-mutated, 72 h + 96 h. The data set is classed as cell-based. The text has this: (§1) 2. Anti-Proliferative Activity Assay of Cell:
The next data set deals with DLD-1 cells. Put plainly: Anti-proliferative activity assay, BRCA wild-type DLD-1 cells (CCK8). The class given is cell-based. The settings on record: Homo sapiens, 72 h + 96 h.
Source text: as §1

The test system of data set [3] is breast cancer MDA-MB-436. Description: Challenge experiment on subcutaneous xenograft tumor model of breast cancer MDA-MB-436 (large-volume tumors). The settings on record: 1 mg/kg orally once per day.
Data set [4] can be described thus: Pharmacokinetic evaluation in Balb/c mice. The class given is in vivo. The settings on record: mouse, plasma, 1 mg/kg, PO.
The target of another data set is PARP1 (Homo sapiens, UniProt P09874). Description: Determination of PARP1 Enzyme. The class given is biochemical. The settings on record: read-out: PARP-1 inhibition ratio. As to the method: 1.1 Determination of PARP1 Enzyme
PARP1, sequence (P09874 whole entry): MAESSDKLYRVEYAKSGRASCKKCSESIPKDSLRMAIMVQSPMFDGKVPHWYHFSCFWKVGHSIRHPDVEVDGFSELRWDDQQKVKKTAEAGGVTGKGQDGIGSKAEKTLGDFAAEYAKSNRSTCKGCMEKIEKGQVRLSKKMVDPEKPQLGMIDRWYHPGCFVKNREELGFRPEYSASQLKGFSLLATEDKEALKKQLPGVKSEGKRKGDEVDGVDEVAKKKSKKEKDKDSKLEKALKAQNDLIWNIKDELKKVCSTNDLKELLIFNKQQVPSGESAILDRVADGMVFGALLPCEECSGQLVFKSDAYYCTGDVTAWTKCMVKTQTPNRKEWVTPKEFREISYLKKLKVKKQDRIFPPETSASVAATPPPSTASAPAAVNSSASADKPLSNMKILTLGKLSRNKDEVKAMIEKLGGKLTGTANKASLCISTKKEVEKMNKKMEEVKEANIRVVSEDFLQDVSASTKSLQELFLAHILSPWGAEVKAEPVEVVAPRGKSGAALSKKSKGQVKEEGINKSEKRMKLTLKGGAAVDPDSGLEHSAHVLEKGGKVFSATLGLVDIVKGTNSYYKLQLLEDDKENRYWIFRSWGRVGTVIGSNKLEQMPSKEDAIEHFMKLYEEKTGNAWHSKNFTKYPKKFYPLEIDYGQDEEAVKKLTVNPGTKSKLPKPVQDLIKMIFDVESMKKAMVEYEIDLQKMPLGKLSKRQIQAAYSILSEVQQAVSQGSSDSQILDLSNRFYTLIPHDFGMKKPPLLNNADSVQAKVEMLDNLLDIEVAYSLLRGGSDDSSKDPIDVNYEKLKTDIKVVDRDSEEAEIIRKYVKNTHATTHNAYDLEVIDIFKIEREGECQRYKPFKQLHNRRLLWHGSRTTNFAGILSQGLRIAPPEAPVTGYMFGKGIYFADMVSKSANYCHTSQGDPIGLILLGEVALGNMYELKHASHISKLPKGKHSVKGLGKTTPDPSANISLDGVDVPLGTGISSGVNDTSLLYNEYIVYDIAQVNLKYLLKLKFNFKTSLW
1.1.1 Preparation of buffer solution: PBST: 1× PBS, 0.05% Tween-20; blocking solution: 1× PBS, 0.05% Tween-20, 5% BSA; reaction buffer: 50 mM Tris-HCl (pH 7.5), 0.005% Tween-20, 0.01% BSA.
1.1.2 Coating: A 50 ng/mL Histone coating solution was prepared by using 1× PBS, 25 μL of the coating solution was transferred to a 384-well reaction plate, and the reaction plate was coated overnight at 4 °C.
1.1.3 Washing: After the coating was completed, the coating solution was discarded, and the reaction plate was washed with the PBST solution by means of transferring 50 μL of the PBST to the 384-well reaction plate, letting it stand for 5 min, discarding the washing solution, refilling the reaction plate, and repeating the washing process 3 times. Finally, the reaction plate was tapped dry and the next step of blocking was proceeded with.
1.1.4 Blocking: 50 μL of the blocking solution was transferred to the 384-well reaction plate and set for 1 h.
Washing: After the blocking was completed, the blocking solution was discarded, the reaction plate was washed 3 times with the PBST solution according to the method in Step 2, and the reaction plate was tapped dry.
1.1.5 A 1,000× compound was prepared, 1 μL of the compound was transferred to a 96-well plate containing 199 μL of the reaction buffer, mixed well, and then 5 µL of the mixed compound was transferred to the 384-well reaction plate.
1.1.6 A 25/10× PARP1-DNA solution was prepared by using the reaction buffer, 10 μL of the PARP1-DNA solution was transferred to the 384-well reaction plate. For a negative control well, 10 μL of the DNA solution was transferred and the final concentration of PARP1 was 0.02 nM and that of DNA was 0.8 nM.
1.1.9 Washing: After the reaction was completed, the reaction liquid was discarded. The reaction plate was washed 3 times with the PBST solution according to the method in Step 2, and the reaction plate was tapped dry.
1.1.11 Washing: The anti-Poly/Mono-ADP Ribose Rabbit was discarded, the reaction plate was washed 3 times with the PBST solution according to the method in Step 2, and the reaction plate was tapped dry.
1.1.12 A 2,000× anti-rabbit IgG, HRP-linked Antibody was diluted with the blocking solution, 20 μL of the diluted anti-rabbit IgG, HRP-linked Antibody was added, and incubated at room temperature for 1 h.
1.1.13 Washing: The anti-rabbit IgG, HRP-linked Antibody was discarded, the reaction plate was washed 3 times with the PBST solution according to the method in Step 2, and the reaction plate was tapped dry.
1.1.14 Color developing: Femto-ECL Substrate A and Femto-ECL Substrate B were mixed in a 1:1 ratio, and 25 μL of the mixture was transferred to the 384-well reaction plate.
1.1.15 Reading: A relative light unit (RLU) was read with Envision.

Setting [5] is: 0.1 mg/kg orally once daily, 24 days.

For the molecule `CCc1cc2ncc(CN3CCN(c4ccc(C(=O)NC)nc4)CC3)cc2[nH]c1=O` [AZD5305, reference compound], in data set [1] (0.1 mg/kg orally once daily), the “Body weight X ± SD, End” value is on record as 21.8 ± 1.0 g and the “Body weight X ± SD, Start” value is 21.9 ± 0.7 g. For the same molecule, the “inhibitory effects on tumor growth compared to blank control group” value in the data set on breast cancer MDA-MB-436 [2] (24 days) is “significant inhibitory effects on tumor growth”.
In general, IC50 refers to the concentration that inhibits the measured activity by half. One may read the CL/F as the apparent clearance, not corrected for the fraction that reaches the circulation. In the case of `CCc1cc2ncc(CN3CC=C(c4ccc(C(=O)NC)nc4)CC3)cc2[nH]c1=O` [Compound 1], the IC50 in the data set on MDA-MB-436 cells was determined as 0.9 nM. For the same molecule, the IC50 in the data set on DLD-1 cells was more than 10000 nM. Besides, the “tumor regression in large-volume tumors” value with breast cancer MDA-MB-436 [3] is “complete regression of tumors”. Besides, in data set [1] (0.1 mg/kg orally once daily), the “Body weight X ± SD, End” value was found to be 21.6 ± 1.1 g and the “Body weight X ± SD, Start” value was 21.6 ± 0.3 g. In the data set with breast cancer MDA-MB-436 [2] (setting [5]), the Tumor inhibition rate is listed as 82.18% and the “Tumor weight X ± SD” value is 0.39 ± 0.28 g. Besides, the “Tumor volume X ± SD, End” value in the data set on breast cancer MDA-MB-436 [2] (0.1 mg/kg orally once daily, end, 24 days) is 304.9 ± 141.7 mm^3. Also, the “Tumor volume X ± SD, Start” value in the data set with breast cancer MDA-MB-436 [2] (0.1 mg/kg orally once daily, start) came out at 271.4 ± 76.6 mm^3. In addition, the “inhibitory effects on tumor growth compared to blank control group” value in the data set with breast cancer MDA-MB-436 [2] (24 days) is listed as “significant inhibitory effects on tumor growth”. In data set [4], this molecule had an apparent clearance (CL/F) of 0.167 mL/min/kg.
For `[2H]C([2H])([2H])NC(=O)c1ccc(C2=CCN(Cc3cnc4cc(CC)c(=O)[nH]c4c3)CC2)cn1` [Compound 2], the IC50 was 1.1 nM in the data set on MDA-MB-436 cells and more than 10000 nM with DLD-1 cells.
As for `[2H]C(c1cnc2cc(CC)c(=O)[nH]c2c1)N1CC=C(c2ccc(C(=O)NC)nc2)CC1` (stereo not shown) [Compound 3], the figures for the IC50 in the data set on MDA-MB-436 cells and in the data set on DLD-1 cells were 1 nM and more than 10000 nM, respectively.
Turning to `[2H]C([2H])([2H])NC(=O)c1ccc(C2=CCN(Cc3cnc4cc(C([2H])([2H])C([2H])([2H])[2H])c(=O)[nH]c4c3)CC2)cn1` [Compound 11, 1′-((7-(ethyl-d5)-6-oxo-5,6-dihydro-1,5-naphthyridin-3-yl)methyl)-N-(methyl-d3)-1′,2′,3′,6′-tet rahydro-[3,4′-bipyridine]-6-carboxamide], the results for the IC50 in the data set with MDA-MB-436 cells and in the data set on DLD-1 cells were 0.8 nM and more than 10000 nM, respectively.
Turning to `[2H]C([2H])([2H])C([2H])([2H])c1cc2ncc(CN3CC=C(c4ccc(C(=O)NC5CC5)nc4)CC3)cc2[nH]c1=O` [Compound 12, N-cyclopropyl-1′-((7-(ethyl-d5)-6-oxo-5,6-dihydro-1,5-naphthyridin-3-yl)methyl)-1′,2′,3′,6′-tet rahydro-[3,4′-bipyridine]-6-carboxamide], on PARP1, the inhibition at 0.01 µM was 99.8% and the inhibition at 0.1 µM was 99.9%.
For `[2H]C([2H])([2H])C([2H])([2H])c1nc2ccc(CN3CC=C(c4ccc(C(=O)NC)nc4)CC3)c(F)c2[nH]c1=O` [Compound 13, 1′-((2-(ethyl-d5)-5-fluoro-3-oxo-3,4-dihydroquinoxalin-6-yl)methyl)-N-methyl-1′,2′,3′,6′-tetra hydro-[3,4′-bipyridine]-6-carboxamide] the same measures were 96.1% and 98.5%.
Regarding `[2H]C([2H])([2H])C([2H])([2H])c1nc2ccc(CN3CC=C(c4ccc(C(=O)NC)nc4F)CC3)c(F)c2[nH]c1=O` [Compound 14, 1′-((2-(ethyl-d5)-5-fluoro-3-oxo-3,4-dihydroquinoxalin-6-yl)methyl)-2-fluoro-N-methyl-1′,2′,3′,6′-tetrahydro-[3,4′-bipyridine]-6-carboxamide], at PARP1, the inhibition at 0.01 µM was 98.9% and the inhibition at 0.1 µM was 99.1%.
Regarding `[2H]C([2H])([2H])Cc1cc2ncc(CN3CC=C(c4ccc(C(=O)NC)nc4)CC3)cc2[nH]c1=O` [Compound 16, 1′-((7-(ethyl-2,2,2-d3)-6-oxo-5,6-dihydro-1,5-naphthyridin-3-yl)methyl)-N-methyl-1′,2′,3′,6′-t etrahydro-[3,4′-bipyridine]-6-carboxamide], the IC50 was 0.7 nM in the data set on MDA-MB-436 cells and more than 10000 nM in the data set with DLD-1 cells.
Take `O=C(c1cc(Cc2n[nH]c(=O)c3ccccc23)ccc1F)N1CCN(C(=O)C2CC2)CC1` [Olaparib, reference compound]: in data set [1] (100 mg/kg orally once daily), the “Body weight X ± SD, End” value is on record as 21.7 ± 1.4 g and the “Body weight X ± SD, Start” value was determined as 21.9 ± 1.1 g. Further, the “inhibitory effects on tumor growth compared to blank control group” value in the data set with breast cancer MDA-MB-436 [2] (24 days) is “significant inhibitory effects on tumor growth”.
